Measured values as given in PubChem BioAssay (NCI).
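All cell lines were grown in 96-well plates and treated with compound for 48 hours. GI50 marks 50% less growth. TGI: concentration producing complete growth inhibition.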

Key:
Test in all cases: NCI anticancer screen, dose series, 48 h
CAKI-1 renal = system: CAKI-1 renal
A498 renal = system: A498 renal
K-562 leukemia = system: K-562 leukemia
HL-60(TB) leukemia = system: HL-60(TB) leukemia
HCT-116 colon = system: HCT-116 colon
HCT-15 colon = system: HCT-15 colon
SF-268 CNS = system: SF-268 CNS
SN12C renal = system: SN12C renal
SR leukemia = system: SR leukemia
MCF7 breast = system: MCF7 breast

Structure (SMILES) | TGI (CAKI-1 renal) [µM] | TGI (A498 renal) [µM] | TGI (K-562 leukemia) [µM] | TGI (HL-60(TB) leukemia) [µM] | TGI (HCT-116 colon) [µM] | TGI (HCT-15 colon) [µM] | GI50 (SF-268 CNS) [µM] | TGI (SF-268 CNS) [µM] | GI50 (CAKI-1 renal) [µM] | GI50 (K-562 leukemia) [µM] | GI50 (SN12C renal) [µM] | TGI (SN12C renal) [µM] | GI50 (HL-60(TB) leukemia) [nM] | GI50 (HCT-116 colon) [µM] | GI50 (HCT-15 colon) [µM] | GI50 (SR leukemia) [µM] | TGI (SR leukemia) [µM] | GI50 (MCF7 breast) [µM] | GI50 (A498 renal) [µM] | TGI (MCF7 breast) [µM]
CCC(C)(C)NS(=O)(=O)c1ccccc1 | > 100 | > 100 | > 100 | > 100 | > 100 | > 100 | – | – | – | – | – | – | – | – | – | – | – | – | – | –
C[C@@]1(O)CCC[C@H]1n1c(=O)c(C(F)F)cc2cnc(NC3CCN(S(C)(=O)=O)CC3)nc21 | > 100 | – | > 100 | 5.38 | > 100 | 56.6 | 2.07 | 7.34 | 3.45 | 1.96 | 2.66 | > 100 | 1140 | 1.05 | 1.74 | 1.96 | > 100 | – | – | –
CCOc1ccc(N=Cc2ccc3ccccc3n2)cc1 | > 100 | > 100 | > 100 | > 76.8 | > 100 | > 100 | – | > 100 | – | – | – | > 100 | – | – | – | – | – | – | – | –
CSC1SCC2C(=O)N(C)C(C(C)C)C(=O)OCC(NC(=O)c3cnc4ccccc4n3)C(=O)NC(C)C(=O)N(C)C1C(=O)N(C)C(C(C)C)C(=O)OCC(NC(=O)c1cnc3ccccc3n1)C(=O)NC(C)C(=O)N2C (stereo unspecified) | – | – | – | – | – | – | < 0.001 | – | < 0.001 | < 0.001 | < 0.001 | – | < 1 | – | 0.00322 | – | – | < 0.001 | < 0.001 | –
CCN(CC)/[N+]([O-])=N/OCC(C)O (stereo unspecified) | > 100 | > 100 | > 100 | > 100 | > 100 | > 100 | – | > 100 | – | – | – | > 100 | – | – | – | – | > 100 | – | – | –
COC(=O)c1ccc(/C=C/S(=O)(=O)c2ccccc2)cc1 | > 100 | > 100 | > 100 | > 100 | > 100 | > 100 | – | > 100 | – | – | – | > 100 | – | – | – | – | – | – | – | –
COc1cc(OC)cc(C(=O)Cc2c(C(=O)c3ccccc3)c3ccccc3n2C(=O)c2ccccc2)c1 | > 100 | 92.5 | > 100 | > 100 | > 100 | > 100 | – | > 100 | – | – | – | > 100 | – | – | – | – | > 100 | – | – | –
COc1ccc(C[C@H]2NC[C@H](O)[C@H]2OC(C)=O)cc1 | 0.06 | 0.32 | 0.11 | – | 0.146 | – | – | 1.03 | – | – | – | 0.253 | – | – | – | – | – | – | – | 0.119
COc1cc2c(cc1OC)-c1ncc3cc(OC)c(OC)c(OC)c3c1C2 | 86.1 | – | 48.6 | – | > 100 | > 100 | – | – | 20.5 | 3.89 | 14.4 | 47.9 | – | 31.8 | 35.4 | 11 | 39.8 | – | – | –
CCCCCN(CCCCC)C(=O)[C@H](CCC(=O)OCc1ccccc1)NC(=O)c1cc2ccccc2[nH]1 | > 100 | > 100 | > 100 | > 100 | > 100 | > 100 | – | > 100 | – | – | – | > 100 | – | – | – | – | – | – | – | –
CCOc1ncnc2ccc(Cl)c(I)c12 | > 100 | > 100 | > 100 | > 100 | > 100 | > 100 | – | > 100 | – | – | – | > 100 | – | – | – | – | > 100 | – | – | –
Nc1nc(CC2(O)CCCCC2)cc(-c2ccccc2)n1 | > 100 | > 73.3 | > 100 | 47.9 | > 51 | > 75.5 | – | > 100 | – | – | – | 37.4 | – | – | – | – | 49.6 | – | – | –
N/C(=N\N=C\c1ccc(O)c(O)c1)NO | > 100 | > 100 | > 100 | > 100 | > 100 | > 100 | – | > 100 | – | – | – | > 100 | – | – | – | – | > 100 | – | – | –
CCN(CC)CCOc1ccc(Cc2ccccc2)cc1 | > 100 | 87 | – | – | > 100 | 53.9 | 35.3 | > 100 | 29.5 | – | 48.8 | > 100 | – | 34.8 | 15.1 | – | – | 27.6 | 19.3 | > 100
CCOC(=O)NC(=O)c1cn(C2OC(COC(=O)CCCCCCCCC(=O)OCC3OC(n4cc(C(=O)NC(=O)OCC)c(=O)[nH]c4=O)C4OC(C)(C)OC34)C3OC(C)(C)OC32)c(=O)[nH]c1=O (stereo unspecified) | > 100 | > 100 | > 100 | > 100 | > 100 | > 100 | – | > 100 | – | – | – | > 100 | – | – | – | – | > 100 | – | – | –
CC(C)=CCC/C(C)=C/CC/C(C)=C/C1CCC(=O)C1(C)C (stereo unspecified) | 46.8 | 36.9 | 38 | 27 | 30.7 | 28.9 | – | 33.6 | – | – | – | 30.9 | – | – | – | – | 40.8 | – | – | –
CC1(C)Oc2ccccc2[N+]([O-])=C1c1ccccc1 | > 100 | > 100 | > 100 | > 100 | > 100 | > 100 | – | > 100 | – | – | – | > 100 | – | – | – | – | > 100 | – | – | –
[N-]=[N+]=NC1C2CC3CC(C2)CC1C3 (stereo unspecified) | > 100 | > 100 | > 100 | – | > 100 | – | – | – | – | – | – | > 100 | – | – | – | – | > 100 | – | – | –
CN[C@H]1CC[C@]23C[C@]24CC[C@]2(C)[C@@H]([C@H](C)N(C)C)CC[C@@]2(C)[C@@H]4CC[C@H]3C1(C)C | 45.9 | 35.4 | – | 36.3 | 24 | 25.8 | – | 31.5 | – | – | – | 29.1 | – | – | – | – | – | – | – | 36.2
COc1c(Cl)[c]([Hg][O]C(C)=O)c(NCC(C)=O)c(OC)[c]1[Hg][O]C(C)=O | 35.1 | 71 | > 100 | 50.1 | – | – | 11.4 | 30.8 | 20.2 | 11.8 | 20.8 | 36.3 | 19900 | – | – | – | – | – | 26.7 | –
Cc1nc(-n2nc(-c3ccccc3)cc2-c2ccccc2)sc1C(=O)/C=C/c1ccc(Cl)cc1 | 62.7 | 83.3 | – | 33.1 | – | > 100 | – | > 100 | – | – | – | > 100 | – | – | – | – | – | – | – | –
